# Results as given in patent US7247746B2, “Crystal forms of N-(trans-4-isopropylcyclohexylcarbonyl)-D-phenylalanine” (Novartis, AG, priority 2002, dated 2007).
# Test: solubility of nateglinide in crystallisation solvents
# Type: physicochemical
# Excerpt: First solvents in which nateglinide is readily soluble, i.e., in amounts of at least 1% by weight at an ambient temperature, include lower alcohols, such as methanol, ethanol and isopropanol. Polar solvents such as acetone, tetrahydrofuran, dioxane and dichloromethane can also be effective when used as the first solvent. Second solvents in which nateglinide is only poorly soluble, i.e., in amounts of 0.01% by weight or less, include water, hexane, heptane and diethyl ether. Where a mixed solvent is employed as the first solvent, a mixture of ethanol and toluene or a mixture of methanol and ethyl acetate is effective preferably in combination with water as the second solvent, and more preferably with water containing from about 0.5 to about 3% by weight of hydroxypropylmethylcellulose. The amount of nateglinide in the solvent ranges preferably from 1 to 50% by weight of the resulting mixture. If the amount of nateglinide is more than 50% by weight then the slurry properties of the initial suspension are poor and it will be difficult to agitate the mixture and dissolve the solid. On the other hand, it is not efficient in terms of the volume of the solvent required to use less than 1% of nateglinide by weight. […]
structure (smiles),measurement,setting,value
"CC(C)[C@H]1CC[C@H](C(=O)N[C@H](Cc2ccccc2)C(=O)O)CC1 [nateglinide, N-(trans-4-isopropylcyclohexylcarbonyl)-D-phenylalanine]",amount in which nateglinide is readily soluble (first solvents),"at an ambient temperature, methanol, ethanol, isopropanol, also acetone, tetrahydrofuran, dioxane, dichloromethane",at least 1 % by weight
same,amount in which nateglinide is only poorly soluble (second solvents),"water, hexane, heptane and diethyl ether",≤ 0.01 % by weight
